Experimental data published in US9676704B2, “Pesticidal compositions and processes related thereto” (Dow AgroSciences LLC, priority 2014, dated 2017).

Legend:
Beet Armyworm (BAW) = experiment: Bioassays on BAW, 128-well diet tray assay; assay type: in vivo; settings: Spodoptera exigua, 168 h; 50 μg/cm^2 on artificial diet, second instar larvae, five to seven days, 25° C.; read-out: BAW % Control (or Mortality) rating
Procedure: Bioassays on BAW were conducted using a 128-well diet tray assay. one to five second instar BAW larvae were placed in each well (3 mL) of the diet tray that had been previously filled with 1 mL of artificial diet to which 50 μg/cm^2 of the test compound (dissolved in 50 μL of 90:10 acetone-water mixture) had been applied (to each of eight wells) and then allowed to dry. Trays were covered with a clear self-adhesive cover, and held at 25° C., 14:10 light-dark for five to seven days. Percent mortality was recorded for the larvae in each well; activity in the eight wells was then averaged. The results are indicated in the tables entitled “Table ABC: Assay Results (F)”, “Table ABCD: Assay Results (C)”, and “Table ABCDE: Assay Results (P)” (See Table Section).
(§1) Bioassays on BAW and CL were conducted according to the procedures outlined in Example A: Bioassays on Beet Armyworm (“BAW”) and Cabbage Looper (“CL”) using the following concentrations: 5, 0.5, and 0.05 μg/cm^2.

Cabbage Looper (CL) = experiment: Bioassays on CL, 128-well diet tray assay; assay type: in vivo; settings: Trichoplusia ni, 168 h; 50 μg/cm^2 on artificial diet, second instar larvae, five to seven days, 25° C.; read-out: CL % Control (or Mortality) rating
Procedure: Bioassays on CL were conducted using a 128-well diet tray assay. One to five second instar CL larvae were placed in each well (3 mL) of the diet tray that had been previously filled with 1 mL of artificial diet to which 50 μg/cm^2 of the test compound (dissolved in 50 μL of 90:10 acetone-water mixture) had been applied (to each of eight wells) and then allowed to dry. Trays were covered with a clear self-adhesive cover, and held at 25° C., 14:10 light-dark for five to seven days. Percent mortality was recorded for the larvae in each well; activity in the eight wells was then averaged. The results are indicated in the table entitled “Table ABC: Assay Results (F)”, “Table ABCD: Assay Results (C)”, and “Table ABCDE: Assay Results (P)” (See Table Section).
as §1

[1] = tested on: Yellow Fever Mosquito (YFM); assay type: in vivo, Aedes aegypti; settings: 15 μL of diluted 4000 ppm master solution per well, about 1 day-old larvae, 3 days
Procedure: Master plates containing 400 μg of a molecule dissolved in 100 μL of dimethyl sulfoxide (DMSO) (equivalent to a 4000 ppm solution) are used. A master plate of assembled molecules contains 15 μL per well. To this plate, 135 μL of a 90:10 water:acetone mixture is added to each well. A robot (Biomek® NXP Laboratory Automation Workstation) is programmed to dispense 15 μL aspirations from the master plate into an empty 96-well shallow plate (“daughter” plate). There are 6 reps (“daughter” plates) created per master. The created daughter plates are then immediately infested with YFM larvae. The day before plates are to be treated, mosquito eggs are placed in Millipore water containing liver powder to begin hatching (4 g. into 400 mL). After the daughter plates are created using the robot, they are infested with 220 μL of the liver powder/larval mosquito mixture (about 1 day-old larvae). After plates are infested with mosquito larvae, a non-evaporative lid is used to cover the plate to reduce drying. Plates are held at room temperature for 3 days prior to grading. After 3 days, each well is observed and scored based on mortality. The results are indicated in the table entitled “Table ABC: Assay Results (F)” and “Table ABCD: Assay Results (C)” (See Table Section). Pesticidally Acceptable Acid Addition Salts, Salt Derivatives, Solvates, Ester Derivatives, Polymorphs, Isotopes and Radionuclides

CN(CCNC(=O)c1ccc(/C=C/C(c2cc(Cl)c(Cl)c(Cl)c2)C(F)(F)F)cc1C(F)(F)F)C(=O)CC(F)(F)F (stereo not drawn) [Compound F20, (E)-4-(4,4,4-trifluoro-3-(3,4,5-trichlorophenyl)but-1-en-1-yl)-N-(2-(3,3,3-trifluoro-N-methylpropanamido)ethyl)-2-(trifluoromethyl)benzamide]
mortality at 50 µg/cm2 (Beet Armyworm (BAW)): 50 to 100%
mortality at 50 µg/cm2 (Cabbage Looper (CL)): 50 to 100%
YFM % Control (or Mortality) rating [1]: A (80-100)

CN(CCNC(=O)c1ccc(/C=C/C(c2cc(Cl)c(Cl)c(Cl)c2)C(F)(F)F)cc1C(F)(F)F)C(=O)C(F)(F)F (stereo not drawn) [Compound F21, (E)-4-(4,4,4-trifluoro-3-(3,4,5-trichlorophenyl)but-1-en-1-yl)-N-(2-(2,2,2-trifluoro-N-methylacetamido)ethyl)-2-(trifluoromethyl)benzamide]
mortality at 50 µg/cm2 (Beet Armyworm (BAW)): 50 to 100%
mortality at 50 µg/cm2 (Cabbage Looper (CL)): 50 to 100%
YFM % Control (or Mortality) rating [1]: B (More than 0-Less than 80)

CN(NC(=O)c1ccc(/C=C/C(c2cc(Cl)c(Cl)c(Cl)c2)C(F)(F)F)cc1C(F)(F)F)C(=O)CC(F)(F)F (stereo not drawn) [Compound F22, (E)-N′-methyl-4-(4,4,4-trifluoro-3-(3,4,5-trichlorophenyl)but-1-en-1-yl)-2-(trifluoromethyl)-N′-(3,3,3-trifluoropropanoyl)benzohydrazide]
mortality at 50 µg/cm2 (Beet Armyworm (BAW)): 50 to 100%
mortality at 50 µg/cm2 (Cabbage Looper (CL)): 50 to 100%
YFM % Control (or Mortality) rating [1]: A (80-100)

CN(NC(=O)c1ccc(/C=C/C(c2cc(Cl)c(Cl)c(Cl)c2)C(F)(F)F)cc1C(F)(F)F)C(=O)CCC(F)(F)F (stereo not drawn) [Compound F23, (E)-N′-Methyl-4-(4,4,4-trifluoro-3-(3,4,5-trichlorophenyl)but-1-en-1-yl)-N′-(4,4,4-trifluorobutanoyl)-2-(trifluoromethyl)benzohydrazide]
mortality at 50 µg/cm2 (Beet Armyworm (BAW)): 50 to 100%
mortality at 50 µg/cm2 (Cabbage Looper (CL)): 50 to 100%
YFM % Control (or Mortality) rating [1]: A (80-100)

C[C@H](NC(=O)CC(F)(F)F)NC(=O)c1ccc(/C=C/C(c2cc(Br)c(Cl)c(Br)c2)C(F)(F)F)cc1C(F)(F)F (stereo partly drawn) [Compound P2, 4-((E)-3-(3,5-Dibromo-4-chlorophenyl)-4,4,4-trifluorobut-1-en-1-yl)-2-(trifluoromethyl)-N—((R)-1-(3,3,3-trifluoropropanamido)ethyl)benzamide]
mortality at 50 µg/cm2 (Beet Armyworm (BAW)): 50 to 100%
mortality at 50 µg/cm2 (Cabbage Looper (CL)): 50 to 100%
YFM % Control (or Mortality) rating [1]: A (80-100)

C[C@H](NC(=O)CC(F)(F)F)NC(=O)c1ccc(/C=C/C(c2cc(Br)cc(Br)c2)C(F)(F)F)cc1C(F)(F)F (stereo partly drawn) [Compound P3, 4-((E)-3-(3,5-Dibromophenyl)-4,4,4-trifluorobut-1-en-1-yl)-2-(trifluoromethyl)-N—((R)-1-(3,3,3-trifluoropropanamido)ethyl)benzamide]
mortality at 50 µg/cm2 (Beet Armyworm (BAW)): 50 to 100%
mortality at 50 µg/cm2 (Cabbage Looper (CL)): 50 to 100%
YFM % Control (or Mortality) rating [1]: B (More than 0-Less than 80)

C[C@H](NC(=O)CC(F)(F)F)NC(=O)c1ccc(/C=C/C(c2cc(Cl)c(Br)c(Cl)c2)C(F)(F)F)cc1C(F)(F)F (stereo partly drawn) [Compound P4, 4-((E)-3-(4-Bromo-3,5-dichlorophenyl)-4,4,4-trifluorobut-1-en-1-yl)-2-(trifluoromethyl)-N—((R)-1-(3,3,3-trifluoropropanamido)ethyl)benzamide]
mortality at 50 µg/cm2 (Beet Armyworm (BAW)): 50 to 100%
mortality at 50 µg/cm2 (Cabbage Looper (CL)): 50 to 100%
YFM % Control (or Mortality) rating [1]: A (80-100)

Cc1cc(/C=C/C(c2cc(Cl)c(F)c(Cl)c2)C(F)(F)F)ccc1C(=O)N[C@H](C)NC(=O)CC(F)(F)F (stereo partly drawn) [Compound P5, 4-((E)-3-(3,5-Dichloro-4-fluorophenyl)-4,4,4-trifluorobut-1-en-1-yl)-2-methyl-N—((R)-1-(3,3,3-trifluoropropanamido)ethyl)benzamide]
mortality at 50 µg/cm2 (Beet Armyworm (BAW)): 50 to 100%
mortality at 50 µg/cm2 (Cabbage Looper (CL)): 50 to 100%
YFM % Control (or Mortality) rating [1]: A (80-100)

Cc1cc(/C=C/C(c2cc(Br)c(Cl)c(Br)c2)C(F)(F)F)ccc1C(=O)N[C@H](C)NC(=O)CC(F)(F)F (stereo partly drawn) [Compound P6, 4-((E)-3-(3,5-Dibromo-4-chlorophenyl)-4,4,4-trifluorobut-1-en-1-yl)-2-methyl-N—((R)-1-(3,3,3-trifluoropropanamido)ethyl)benzamide]
mortality at 50 µg/cm2 (Beet Armyworm (BAW)): 50 to 100%
mortality at 50 µg/cm2 (Cabbage Looper (CL)): 50 to 100%
YFM % Control (or Mortality) rating [1]: A (80-100)

Cc1cc(/C=C/C(c2cc(Br)cc(Br)c2)C(F)(F)F)ccc1C(=O)N[C@H](C)NC(=O)CC(F)(F)F (stereo partly drawn) [Compound P7, 4-((E)-3-(3,5-Dibromophenyl)-4,4,4-trifluorobut-1-en-1-yl)-2-methyl-N—((R)-1-(3,3,3-trifluoropropanamido)ethyl)benzamide]
mortality at 50 µg/cm2 (Beet Armyworm (BAW)): 50 to 100%
mortality at 50 µg/cm2 (Cabbage Looper (CL)): 50 to 100%
YFM % Control (or Mortality) rating [1]: A (80-100)

C[C@H](NC(=O)CCC(F)(F)F)NC(=O)c1ccc(/C=C/C(c2cc(Br)c(Cl)c(Br)c2)C(F)(F)F)cc1C(F)(F)F (stereo partly drawn) [Compound P10, 4-((E)-3-(3,5-Dibromo-4-chlorophenyl)-4,4,4-trifluorobut-1-en-1-yl)-N—((R)-1-(4,4,4-trifluorobutanamido)ethyl)-2-(trifluoromethyl)benzamide]
mortality at 50 µg/cm2 (Beet Armyworm (BAW)): 50 to 100%
mortality at 50 µg/cm2 (Cabbage Looper (CL)): 50 to 100%
YFM % Control (or Mortality) rating [1]: A (80-100)

C[C@H](NC(=O)CCC(F)(F)F)NC(=O)c1ccc(/C=C/C(c2cc(Br)cc(Br)c2)C(F)(F)F)cc1C(F)(F)F (stereo partly drawn) [Compound P11, 4-((E)-3-(3,5-Dibromophenyl)-4,4,4-trifluorobut-1-en-1-yl)-N—((R)-1-(4,4,4-trifluorobutanamido)ethyl)-2-(trifluoromethyl)benzamide]
mortality at 50 µg/cm2 (Beet Armyworm (BAW)): 50 to 100%
mortality at 50 µg/cm2 (Cabbage Looper (CL)): 50 to 100%
YFM % Control (or Mortality) rating [1]: A (80-100)

C[C@H](NC(=O)CCC(F)(F)F)NC(=O)c1ccc(/C=C/C(c2cc(Cl)c(Br)c(Cl)c2)C(F)(F)F)cc1C(F)(F)F (stereo partly drawn) [Compound P12, 4-((E)-3-(4-Bromo-3,5-dichlorophenyl)-4,4,4-trifluorobut-1-en-1-yl)-N—((R)-1-(4,4,4-trifluorobutanamido)ethyl)-2-(trifluoromethyl)benzamide]
mortality at 50 µg/cm2 (Beet Armyworm (BAW)): 50 to 100%
mortality at 50 µg/cm2 (Cabbage Looper (CL)): 50 to 100%
YFM % Control (or Mortality) rating [1]: A (80-100)

Cc1cc(/C=C/C(c2cc(Cl)c(F)c(Cl)c2)C(F)(F)F)ccc1C(=O)N[C@H](C)NC(=O)CCC(F)(F)F (stereo partly drawn) [Compound P13, 4-((E)-3-(3,5-Dichloro-4-fluorophenyl)-4,4,4-trifluorobut-1-en-1-yl)-2-methyl-N—((R)-1-(4,4,4-trifluorobutanamido)ethyl)benzamide]
mortality at 50 µg/cm2 (Beet Armyworm (BAW)): 50 to 100%
mortality at 50 µg/cm2 (Cabbage Looper (CL)): 50 to 100%
YFM % Control (or Mortality) rating [1]: A (80-100)

Cc1cc(/C=C/C(c2cc(Br)c(Cl)c(Br)c2)C(F)(F)F)ccc1C(=O)N[C@H](C)NC(=O)CCC(F)(F)F (stereo partly drawn) [Compound P14, 4-((E)-3-(3,5-Dibromo-4-chlorophenyl)-4,4,4-trifluorobut-1-en-1-yl)-2-methyl-N—((R)-1-(4,4,4-trifluorobutanamido)ethyl)benzamide]
mortality at 50 µg/cm2 (Beet Armyworm (BAW)): 50 to 100%
mortality at 50 µg/cm2 (Cabbage Looper (CL)): 50 to 100%
YFM % Control (or Mortality) rating [1]: A (80-100)
